On the set-up of data set [1]: method as in Japanese Pharmacopoeia monograph. The settings on record: ref Japanese Pharmacopoeia monograph, cited from earlier work.
The nature of data set [2]: Enzymatic hydrolysis of UqH-derivatives in rat liver microsomes. In kind it is in vitro ADME. Conditions: for Km / Vmax: pH 7.4, 37 °C. The procedure: (§1) The hydrolysis of esters was analyzed at 37 °C in phosphate buffered saline (PBS) containing commercially available rat or human liver microsomes (In Vitro Technologies, Inc., Baltimore, MD, USA). The microsomes (20 mg/mL) were adjusted to a protein concentration of 2 mg/mL and were preincubated at 37 °C for 5 min before adding the esters.
Stock solutions of esters were prepared in ethanol. The enzymatic reactions were initiated by adding 10 µL ester stock solution (final concentration 0.1–0.4 mM) and 50 μL PBS to 940 µL of preheated reaction medium containing rat or human liver microsomes in amber test tubes. These reactions were incubated at 37 °C and, at various times, 100 μL aliquots were removed and mixed with 100 µL 10% trichloroacetic acid. Samples were then vortex mixed for 2 min and 800 µL ethyl acetate was added, with vortex mixing for 5 min. The samples were centrifuged at 1250× g for 10 min. The 20 µL organic layer was analyzed by the HPLC system described in Section 3.9.1. The initial hydrolytic rate (mM UqH-10 formed per min) was calculated from the initial slope of a plot of UqH-10 concentration versus time.
(§2) The Shimadzu HPLC system (Shimadzu, Kyoto, Japan) consisted of a pump (LC-10AD), an autoinjector (SIL-10ADvp), a UV detector (SPD-10Avp), and a column oven (CTO-10Avp). The eluent was monitored spectrophotometrically at 280 nm. Compounds were analyzed on a YMC-Pack C8 reversed-phase column (φ 4.6 × 250 mm, YMC Co., Ltd., Kyoto, Japan) protected by a µBondapak C18 Guard-Pak (Waters Co., Milford, MA, USA) with a degassed mobile phase of methanol and 2-propanol (850/150, v/v) at 0.8 mL/min. UqH-10 and Uq-10 were quantified using linear calibration curves of peak areas versus concentrations. UqH-10 was partly oxidized during the preparation procedure. Therefore, the sum of UqH-10 and Uq-10 represented total UqH-10. Retention times were: UqH-10, 11.6 min; UqH-ester derivatives, 13.2 min and Uq-10, 15.4 min.
(Liver microsomes are a subcellular fraction often used to study metabolism.)

Another data set in a line: Water solubility. The settings on record: in water. In kind it is physicochemical. As to the method:
The aqueous solubility of each ester was determined by adding 20 μmol of each compound to 1 mL distilled water in amber test tubes and incubating the tubes at 25 ± 1 °C in a constant-temperature water bath. The test tubes were shaken for 24 h and the suspensions were centrifuged at 1250× g for 10 min. The supernatants were diluted 10-fold with distilled water and assayed by the HPLC method described in Section 3.9.1.
as §2

Data set [3] can be described thus: Mixed-micellization with taurocholic acid (appearance of mixtures). In kind it is physicochemical. As to the method:
(§3) A solution of 20 mM UqH-DMG was prepared in distilled water and incubated at 36.5 °C until the solution was translucent. The solution was combined with 10 mM TCA aqueous solution in the final molar ratios of 1:0.5–10 UqH-DMG:TCA.

The nature of data set [4]: Enzymatic hydrolysis of UqH-derivatives in human liver microsomes. In kind it is in vitro ADME. Conditions: pH 7.4, 37 °C, Michaelis–Menten fit. As to the method:
as §1
Stock solutions of esters were prepared in ethanol. The enzymatic reactions were initiated by adding 10 µL ester stock solution (final concentration 0.1–0.4 mM) and 50 μL PBS to 940 µL of preheated reaction medium containing rat or human liver microsomes in amber test tubes. […] The 20 µL organic layer was analyzed by the HPLC system described in Section 3.9.1. The initial hydrolytic rate (mM UqH-10 formed per min) was calculated from the initial slope of a plot of UqH-10 concentration versus time.
The Shimadzu HPLC system (Shimadzu, Kyoto, Japan) consisted of a pump (LC-10AD), an autoinjector (SIL-10ADvp), a UV detector (SPD-10Avp), and a column oven (CTO-10Avp). The eluent was monitored spectrophotometrically at 280 nm. Compounds were analyzed on a YMC-Pack C8 reversed-phase column (φ 4.6 × 250 mm, YMC Co., Ltd., Kyoto, Japan) protected by a µBondapak C18 Guard-Pak (Waters Co., Milford, MA, USA) with a degassed mobile phase of methanol and 2-propanol (850/150, v/v) at 0.8 mL/min. […]

The nature of data set [5]: Particle size by dynamic light scattering (Zetasizer Nano ZS). In kind it is physicochemical. Conditions: mean ± SD. As to the method: as §3
The Z-average of diameters of the particles of aqueous solution of UqH-DMG prepared in a polystyrene cuvette in Section 3.7.1. above were determined by a Zetasizer Nano ZS (MALVERN, Worcestershire, UK). The measurements were performed three independent times for each sample.

Data set [6] in a line: Micellization of UqH-DMG in water (visual inspection, solubilizing point vs temperature). It is filed as physicochemical. Conditions: for Appearance of solution: 45 mM in water. The procedure:
UqH-DMG was diluted to intended concentrations with milliQ water in glass tubes. The test tubes were incubated in a water bath equipped with a thermometer. The solution appearance was visually inspected and the solubilizing points were plotted on a concentration versus incubation temperature curve.

For data set [7], the system named is esterases in human liver microsomes. In words: Effect of eserine on UqH-4-DMG hydrolysis in human liver microsomes. The settings on record: eserine 0–2.0 mM. In kind it is biochemical. The procedure: (§4) Effects of eserine on UqH-4-DMG hydrolysis in liver microsomes was also examined, using similar methods, with 50 µL eserine aqueous solution added, instead of PBS, to the mixtures with liver microsomes. Eserine was tested at 0–2.0 mM.

Data set [8] has as its system esterases in rat liver microsomes. In words: Effect of eserine on UqH-4-DMG hydrolysis in rat liver microsomes. It is filed as biochemical. The settings on record: eserine 0–2.0 mM. The procedure:
as §4

Setting [9] is: calculated using generated UqH-10 levels after sequential hydrolysis.

The text below walks through data of paper PMC7037610, “Novel Cationic Prodrug of Ubiquinol-10 Enhances Intestinal Absorption via Efficient Formation of Nanosized Mixed-Micelles with Bile Acid Anions” (Molecules, 2020).

A word on the melting point: it is the temperature of the solid-liquid transition. Broadly, the Km is the concentration of substrate that gives half-maximal velocity. In general, Vmax refers to the rate approached at saturating substrate.

Values joined by “and” are separate entries in the source; they are usually repeats but may differ in a detail not shown here. Identical values can stand only once. Counter-ions that a name gives are not always drawn. Marks after values point to notes of the source that are not given here.

Regarding `COc1c(OC(=O)CN(C)C)c(C)c(C/C=C(\C)CC/C=C(\C)CC/C=C(\C)CC/C=C(\C)CC/C=C(\C)CC/C=C(\C)CC/C=C(\C)CC/C=C(\C)CC/C=C(\C)CCC=C(C)C)c(OC(=O)CN(C)C)c1OC` (as salt: hydrochloride) [UqH-DMG, 2,3-dimethoxy-5-methyl-6-decaprenyl-benzene-1,4-bis-N,N–dimethyl glycinate], the melting point lay within 179 to 181 °C.
On to `COC1=C(OC)C(=O)C(C/C=C(\C)CC/C=C(\C)CC/C=C(\C)CC/C=C(\C)CC/C=C(\C)CC/C=C(\C)CC/C=C(\C)CC/C=C(\C)CC/C=C(\C)CCC=C(C)C)=C(C)C1=O` [Uq-10, Ubiquinone-10], for which the Water solubility in data set [1] (even when diluted to this concentration) is less than 116 µM. The Water solubility descriptor entry in data set [1] is listed as “practically insoluble, or insoluble”.
With `COc1c(O)c(C)c(C/C=C(\C)CC/C=C(\C)CC/C=C(\C)CC/C=C(\C)CC/C=C(\C)CC/C=C(\C)CC/C=C(\C)CC/C=C(\C)CC/C=C(\C)CCC=C(C)C)c(OC(=O)CN(C)C)c1OC` [UqH-1-DMG], in data set [2] (Michaelis–Menten fit), the Michaelis constant (Km) worked out at 4630 µM and the Vmax was determined as 8.21e-07 M/min. Also, in “Water solubility”, the “Water solubility compared with UqH bis-ester (UqH-DMG)” value is “lower”.
Consider `COc1c(O)c(C/C=C(\C)CC/C=C(\C)CC/C=C(\C)CC/C=C(\C)CC/C=C(\C)CC/C=C(\C)CC/C=C(\C)CC/C=C(\C)CC/C=C(\C)CCC=C(C)C)c(C)c(OC(=O)CN(C)C)c1OC` [UqH-4-DMG], for which the “Vmax/Km relative to UqH-1-DMG” value in data set [2] is reported as 8.9 fold. The Michaelis constant (Km) in data set [2] (Michaelis–Menten fit) was determined as 75.1 µM; in data set [4], 72.2 µM. Also, the Vmax came to 1.19e-07 M/min in [2] (Michaelis–Menten fit) and 1.23e-07 M/min in data set [4]. For the same compound, in [3] (10-times molar-equivalents taurocholic acid), the “Solubilization with taurocholic acid” value is “solubilized”. In addition, the “Water solubility compared with UqH bis-ester (UqH-DMG)” value in the data set “Water solubility” is “lower”.
On to `COc1c(OC(=O)CN(C)C)c(C)c(C/C=C(\C)CC/C=C(\C)CC/C=C(\C)CC/C=C(\C)CC/C=C(\C)CC/C=C(\C)CC/C=C(\C)CC/C=C(\C)CC/C=C(\C)CCC=C(C)C)c(OC(=O)CN(C)C)c1OC` [UqH-DMG, 2,3-dimethoxy-5-methyl-6-decaprenyl-benzene-1,4-bis-N,N–dimethyl glycinate], for which the Km in [2] (setting [9]) is 3890 µM. In addition, the Vmax in [2] (setting [9]) is 0.603 ^a ×10^−6 M·min^−1. The “Appearance of mixture with taurocholic acid” value in data set [3] (UqH-DMG:TCA molar ratio 1:0.5) was “slightly cloudy”; in [3] (UqH-DMG:TCA molar ratios 1:1 to 1:10), “transparent”. The Z-average particle diameter in [5] (20 mM in water, without TCA, prepared at 36.5 °C) is 20.38 ± 0.14 nm and 20 nm; in data set [5] (UqH-DMG:TCA mixture at 1:1 molar ratio), 5.183 ± 0.033 nm and 5 nm. Moreover, the solubility at 24 h in “Water solubility” (distilled water, read-out: Water solubility (transparent solution in water at concentrations up to)) is no more than 5000 µM. The Appearance of solution entry in [6] (27.0 °C) is given as “opaque”; in data set [6] (36.5 °C), “transparent”. Besides, the “Krafft's point” value in [6] (in water) was “around 36.5 °C”.
For the compound `CNC(=O)Oc1ccc2c(c1)[C@]1(C)CCN(C)[C@@H]1N2C` [eserine, physostigmine sulfate], the “Effect on UqH-4-DMG hydrolysis” value in data set [7] and in [8] was “inhibited” in each case.
